Measurements reported in the NIST ThermoML archive (doi:10.1021/je060217u).

Columns and labels:
[1] = 298.15 K; 101 kPa; Liquid
[2] = xn = mol fraction of the nth substance listed; conditions: 298.15 K, 101 kPa, Liquid

COC(=O)OC [dimethyl carbonate]
Conditions | mass density [kg/m3]
[1] | 1063.19

CCO [ethanol] + COC(=O)OC
Conditions | mass density [kg/m3]
[2], x1 = 1 | 785.2

COC(=O)OC [dimethyl carbonate] + CCO
[2]
Conditions | mass density [kg/m3]
x2 = 0 | 1063.19
x2 = 0.0501 | 1052.75
x2 = 0.1 | 1042.29
x2 = 0.1501 | 1031.54
x2 = 0.1998 | 1020.64
x2 = 0.2498 | 1009.34
x2 = 0.2998 | 997.73
x2 = 0.3501 | 985.68
x2 = 0.4002 | 973.28
x2 = 0.4499 | 960.59
x2 = 0.5 | 947.4
x2 = 0.55 | 933.74
x2 = 0.6001 | 919.57
x2 = 0.65 | 905
x2 = 0.6999 | 889.89
x2 = 0.7499 | 874.1
x2 = 0.8001 | 857.71
x2 = 0.8498 | 840.7
x2 = 0.8998 | 822.98
x2 = 0.95 | 804.45

CCCCO [butan-1-ol]
Conditions | mass density [kg/m3]
[1] | 806.04

CCCCO [butan-1-ol] + COC(=O)OC
Conditions | mass density [kg/m3]
[2], x1 = 1 | 806.04

COC(=O)OC [dimethyl carbonate] + CCCO
[2]
Conditions | mass density [kg/m3]
x2 = 0 | 1063.19
x2 = 0.0501 | 1050.5
x2 = 0.1002 | 1037.73
x2 = 0.1498 | 1025.44
x2 = 0.1999 | 1012.47
x2 = 0.2502 | 999.85
x2 = 0.2999 | 987.13
x2 = 0.3498 | 974.39
x2 = 0.3998 | 961.45
x2 = 0.4499 | 948.47
x2 = 0.5001 | 935.29
x2 = 0.55 | 922.19
x2 = 0.6 | 908.92
x2 = 0.6501 | 895.57
x2 = 0.7001 | 882.18
x2 = 0.75 | 868.68
x2 = 0.8002 | 855.15
x2 = 0.8501 | 841.36
x2 = 0.9002 | 827.59
x2 = 0.9502 | 813.83

CCO [ethanol]
Conditions | mass density [kg/m3]
[1] | 785.2

CCCO [propan-1-ol]
Conditions | mass density [kg/m3]
[1] | 799.75

COC(=O)OC [dimethyl carbonate] + CCCCO
[2]
Conditions | mass density [kg/m3]
x2 = 0 | 1063.19
x2 = 0.0502 | 1047.97
x2 = 0.0999 | 1033.24
x2 = 0.1499 | 1018.51
x2 = 0.2003 | 1004.53
x2 = 0.2501 | 990.53
x2 = 0.2998 | 976.9
x2 = 0.3499 | 963.39
x2 = 0.4 | 950.13
x2 = 0.4501 | 937.02
x2 = 0.5 | 924.2
x2 = 0.55 | 911.58
x2 = 0.6 | 899.07
x2 = 0.65 | 886.83
x2 = 0.7 | 874.68
x2 = 0.7499 | 862.98
x2 = 0.7999 | 851.07
x2 = 0.85 | 839.53
x2 = 0.8999 | 828.11
x2 = 0.9499 | 817

CCCO [propan-1-ol] + COC(=O)OC
Conditions | mass density [kg/m3]
[2], x1 = 1 | 799.75
